From ChEMBL document CHEMBL1687769, “High cefepime plasma concentrations and neurological toxicity in febrile neutropenic patients with mild impairment of renal function” (Antimicrob Agents Chemother, 2010) come the findings set out here.

The subject of series [1] is Homo sapiens. Put plainly: Neurotoxicity in febrile neutropenic patient assessed as myoclonia at 2 g administered as 30 mins infusion every 8 hrs. It is filed as toxicity, organism-based. The following applies: in vivo, iv.
Series [2] relates to Homo sapiens. As to the kind of experiment: Neurotoxicity in febrile neutropenic patient assessed as confusion at 2 g administered as 30 mins infusion every 8 hrs. Type of series: toxicity, organism-based. The settings on record: in vivo, iv.
Series [3] relates to Homo sapiens. Put plainly: Neurotoxicity in febrile neutropenic patient assessed as hallucinations at 2 g administered as 30 mins infusion every 8 hrs. The following applies: in vivo, iv. It is filed as toxicity, organism-based.
Series [4] is described as follows: Cmin in febrile neutropenic patient with neurological disorder at 2 g administered as 30 mins infusion every 8 hrs measured after 4 days by HPLC analysis. It is filed as ADME, organism-based. The settings on record: human, in vivo, iv, read-out: Cmin.
A short description of series [5]: Cmin in febrile neutropenic patient with GFR of <40 ml/min at 2 g administered as 30 mins infusion every 8 hrs measured after 4 days by HPLC analysis. Type of series: ADME, organism-based. The settings on record: human, in vivo, iv, read-out: Cmin.

Consider `CO/N=C(\C(=O)N[C@@H]1C(=O)N2C(C(=O)[O-])=C(C[N+]3(C)CCCC3)CS[C@H]12)c1csc(N)n1` [CEFEPIME], for which the Activity result with Homo sapiens [1], in the series on Homo sapiens [2] and in the series on Homo sapiens [3] was “Toxic” in each case. Besides, the concentration at 4 days in series [4] was determined as 28000 ng/mL; in series [5] it was 11400 ng/mL.
